For the assay, the target named is ATP-binding cassette sub-family C member 9 (Rattus norvegicus) (UniProt Q63563). The experiment in a line: […] of SUR2A/kir6.2 channel in Wistar rat thoracic aorta assessed as relaxation of Kcl-induced contraction. It counts as tissue-based.
ATP-binding cassette sub-family C member 9 (Rattus norvegicus), sequence (Q63563 whole entry): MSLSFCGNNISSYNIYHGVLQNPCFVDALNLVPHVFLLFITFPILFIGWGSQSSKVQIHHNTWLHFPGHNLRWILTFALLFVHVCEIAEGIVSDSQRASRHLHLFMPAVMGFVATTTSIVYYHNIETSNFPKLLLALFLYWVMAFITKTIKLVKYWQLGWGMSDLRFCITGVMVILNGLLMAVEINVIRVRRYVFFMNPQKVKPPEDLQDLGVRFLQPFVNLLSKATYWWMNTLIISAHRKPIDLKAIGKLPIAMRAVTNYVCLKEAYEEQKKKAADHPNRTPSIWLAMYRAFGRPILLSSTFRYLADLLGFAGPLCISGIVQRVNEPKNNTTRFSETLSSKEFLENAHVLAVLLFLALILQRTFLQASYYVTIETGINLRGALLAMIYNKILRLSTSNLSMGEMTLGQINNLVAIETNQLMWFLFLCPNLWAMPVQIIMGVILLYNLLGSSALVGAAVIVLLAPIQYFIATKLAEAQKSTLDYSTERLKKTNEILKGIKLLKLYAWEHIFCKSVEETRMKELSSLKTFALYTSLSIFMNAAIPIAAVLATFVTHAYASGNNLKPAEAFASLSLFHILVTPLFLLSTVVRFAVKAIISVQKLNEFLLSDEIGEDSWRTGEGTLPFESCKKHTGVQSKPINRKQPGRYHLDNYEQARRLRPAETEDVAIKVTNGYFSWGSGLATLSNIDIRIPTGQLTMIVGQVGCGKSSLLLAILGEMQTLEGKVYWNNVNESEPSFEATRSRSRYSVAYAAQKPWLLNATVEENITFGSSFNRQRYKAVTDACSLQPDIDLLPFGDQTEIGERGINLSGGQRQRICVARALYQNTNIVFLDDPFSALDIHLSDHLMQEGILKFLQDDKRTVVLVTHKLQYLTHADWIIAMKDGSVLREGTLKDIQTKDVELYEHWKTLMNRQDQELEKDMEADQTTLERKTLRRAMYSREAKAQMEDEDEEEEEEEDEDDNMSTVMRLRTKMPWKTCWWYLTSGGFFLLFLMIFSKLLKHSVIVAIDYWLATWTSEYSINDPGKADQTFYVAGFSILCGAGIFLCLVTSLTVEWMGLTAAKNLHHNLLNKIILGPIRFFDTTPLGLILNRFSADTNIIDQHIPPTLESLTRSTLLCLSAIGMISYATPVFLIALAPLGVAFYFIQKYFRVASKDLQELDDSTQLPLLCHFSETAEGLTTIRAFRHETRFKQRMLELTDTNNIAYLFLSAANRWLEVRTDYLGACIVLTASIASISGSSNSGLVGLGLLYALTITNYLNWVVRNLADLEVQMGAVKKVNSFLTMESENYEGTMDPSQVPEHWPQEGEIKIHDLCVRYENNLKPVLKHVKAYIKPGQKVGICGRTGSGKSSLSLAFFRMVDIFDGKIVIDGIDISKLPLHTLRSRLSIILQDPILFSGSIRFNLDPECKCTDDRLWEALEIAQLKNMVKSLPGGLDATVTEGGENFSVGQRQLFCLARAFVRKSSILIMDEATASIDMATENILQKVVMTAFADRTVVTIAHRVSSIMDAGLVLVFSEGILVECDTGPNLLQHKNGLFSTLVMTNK
For the molecule `CCNC(=O)NC1CC(C)(C)Oc2ccc(F)cc21` (configuration not stated), the pED50 was 4.37.

For `CCOC(=O)NC1CC(C)(C)Oc2ccc(Br)cc21` (configuration not stated), the pED50 stood at 4.59.

Regarding `CC1(C)CC(NC(=S)NCc2ccccc2)c2cc(Cl)ccc2O1` (configuration not stated), the pED50 was found to be 4.7.

As for `CCNC(=S)NC1CC(C)(C)Oc2ccc(Br)cc21` (configuration not stated), the pED50 came to 5.43.

With `CCNC(=O)NC1CC(C)(C)Oc2ccc(Cl)cc21` (configuration not stated), the pED50 is 5.17.

For `CC(=O)NC1CC(C)(C)Oc2ccc(F)cc21` (configuration not stated), the pED50 was determined as 4.33.

Consider `CC(C)NC(=O)NC1CC(C)(C)Oc2ccc(F)cc21` (configuration not stated), for which the pED50 worked out at 3.96.

Regarding `CC(C)NC(=S)NC1CC(C)(C)Oc2ccc(Cl)cc21` (configuration not stated), the pED50 stood at 4.96.

In the case of `CCNC(=S)NC1CC(C)(C)Oc2ccc(Cl)cc21` (configuration not stated), the pED50 amounted to 5.09.

With `CC1(C)Oc2ccc(C#N)cc2C(N2CCCC2=O)C1O` (racemic), the pED50 was found to be 6.89.

For `CC1(C)CC(NC(=S)NCc2ccccc2)c2cc(Br)ccc2O1` (configuration not stated), the pED50 worked out at 4.61.

Consider `CC1(C)CC(NC(=O)NS(=O)(=O)c2ccc(Cl)cc2)c2cc(Cl)ccc2O1` (configuration not stated), for which the pED50 worked out at 4.29.

`CC(C)NC(=S)NC1CC(C)(C)Oc2ccc(F)cc21` (configuration not stated): the pED50 was 4.73.

For the molecule `CC1(C)CC(NC(=O)NS(=O)(=O)c2ccccc2)c2cc(Cl)ccc2O1` (configuration not stated), the pED50 came to 3.68.

For the molecule `CCOC(=O)NC1CC(C)(C)Oc2ccc(Cl)cc21` (configuration not stated), the pED50 was 4.42.

As for `CC(=O)NC1CC(C)(C)Oc2ccc(Br)cc21` (configuration not stated), the pED50 amounted to 5.19.

Take `CC1(C)CC(NC(=O)NCc2ccccc2)c2cc(Cl)ccc2O1` (configuration not stated): the pED50 is 4.82.

Take `CCOC(=O)NC1CC(C)(C)Oc2ccc(F)cc21` (configuration not stated): the pED50 was determined as 4.14.

Take `CC(C)NC(=O)NC1CC(C)(C)Oc2ccc(Br)cc21` (configuration not stated): the pED50 was less than 3.52.

`CC1(C)CC(NC(=O)NCc2ccccc2)c2cc(Br)ccc2O1` (configuration not stated): the pED50 is less than 3.52.

Consider `CC1(C)CC(NC(=S)NCc2ccccc2)c2cc(F)ccc2O1` (configuration not stated), for which the pED50 was 5.37.

Turning to `CCNC(=S)NC1CC(C)(C)Oc2ccc(F)cc21` (configuration not stated), the pED50 was found to be 4.75.

On to `CCNC(=O)NC1CC(C)(C)Oc2ccc(Br)cc21` (configuration not stated), for which the pED50 is 5.12.

For `Cc1ccc(S(=O)(=O)NC(=O)NC2CC(C)(C)Oc3ccc(Cl)cc32)cc1` (configuration not stated), the pED50 turned out to be 4.2.

Turning to `CC(C)NC(=S)NC1CC(C)(C)Oc2ccc(Br)cc21` (configuration not stated), the pED50 was determined as 5.06.

For `CC(=O)NC1CC(C)(C)Oc2ccc(Cl)cc21` (configuration not stated), the pED50 was 5.18.

Take `CC(C)NC(=O)NC1CC(C)(C)Oc2ccc(Cl)cc21` (configuration not stated): the pED50 worked out at 3.84.

These data come from ChEMBL document CHEMBL1154467, “QSAR study about ATP-sensitive potassium channel activation of cromakalim analogues using CP-MLR approach” (Eur J Med Chem, 2008).
